Values after ≈ are worked out from the molar mass of the structure shown.
Tests used:
Assay type in all cases: cell-based
Rhizopus nigricans = assay: conventional agar dilution test, fungicidal activity, Rhizopus nigricans; conditions: Rhizopus stolonifer, complete growth inhibition, read-out: Minimum Inhibitory Concentration
Excerpt: (§1) In representative operations, the products of the invention when tested for fungicidal activity using conventional agar dilution tests gave complete growth inhibition against the following organisms at the indicated concentrations in parts per million: […]

Aspergillus terreus = assay: conventional agar dilution test, fungicidal activity, Aspergillus terreus; conditions: complete growth inhibition, read-out: Minimum Inhibitory Concentration
Excerpt: as §1

Trichoderma sp. 42 = assay: conventional agar dilution test, fungicidal activity, Trichoderma sp. 42; conditions: complete growth inhibition, read-out: Minimum Inhibitory Concentration
Excerpt: as §1

Candida albicans = assay: conventional agar dilution test, fungicidal activity, Candida albicans; conditions: complete growth inhibition, read-out: Minimum Inhibitory Concentration
Excerpt: as §1

Candida pelliculosa = assay: conventional agar dilution test, fungicidal activity, Candida pelliculosa; conditions: Hansenula anomala, complete growth inhibition, read-out: Minimum Inhibitory Concentration
Excerpt: as §1

[1] = test system: Trichophyton mentagrophytes; assay: conventional agar dilution test, fungicidal activity, Trichophyton mentagrophytes; conditions: complete growth inhibition, read-out: Minimum Inhibitory Concentration
Excerpt: as §1

Pullularia pullulans = assay: conventional agar dilution test, fungicidal activity, Pullularia pullulans; conditions: complete growth inhibition, read-out: Minimum Inhibitory Concentration
Excerpt: as §1

Ceratocystis ips = assay: conventional agar dilution test, fungicidal activity, Ceratocystis ips; conditions: complete growth inhibition, read-out: Minimum Inhibitory Concentration
Excerpt: as §1

With N#CSCOc1nc(Cl)c(Cl)cc1Cl [I, [(3,5,6-trichloro-2-pyridinyl)oxy]methyl thiocyanate] the MIC (Rhizopus nigricans) was 10 µg/mL (≈ 37.1 µM), the MIC (Aspergillus terreus) was 1 µg/mL (≈ 3.71 µM) and the MIC (Trichoderma sp. 42) was 10 µg/mL (≈ 37.1 µM). It also gave an MIC (Candida albicans) of 10 µg/mL (≈ 37.1 µM), an MIC (Candida pelliculosa) of 10 µg/mL (≈ 37.1 µM) and an MIC [1] of 1 µg/mL (≈ 3.71 µM). For the same molecule, the MIC (Pullularia pullulans) was 10 µg/mL (≈ 37.1 µM) and the MIC (Ceratocystis ips) was 1 µg/mL (≈ 3.71 µM).

N#CSCOc1c(Cl)c(Cl)nc(Cl)c1Cl [II, Thiocyanic acid, [(2,3,5,6-tetrachloro-4-pyridinyl)oxy]-methyl ester] gave an MIC (Rhizopus nigricans) greater than 100 µg/mL, an MIC (Aspergillus terreus) of 10 µg/mL (≈ 32.9 µM) and an MIC (Trichoderma sp. 42) greater than 100 µg/mL. The MIC (Candida albicans) was greater than 100 µg/mL, the MIC (Candida pelliculosa) was greater than 100 µg/mL and the MIC [1] was 1 µg/mL (≈ 3.29 µM). The MIC (Pullularia pullulans) was 100 µg/mL (≈ 329 µM) and the MIC (Ceratocystis ips) was 10 µg/mL (≈ 32.9 µM).

For N#CSCOc1c(Cl)cnc(Cl)c1Cl [III, Thiocyanic acid, [(2,3,5-trichloro-4-pyridinyl)oxy]methyl ester], the MIC (Rhizopus nigricans) was 10 µg/mL (≈ 37.1 µM), the MIC (Aspergillus terreus) was 1 µg/mL (≈ 3.71 µM) and the MIC (Trichoderma sp. 42) was 10 µg/mL (≈ 37.1 µM). The MIC (Candida albicans) was 10 µg/mL (≈ 37.1 µM), the MIC (Candida pelliculosa) was 10 µg/mL (≈ 37.1 µM) and the MIC [1] was 1 µg/mL (≈ 3.71 µM). The MIC (Pullularia pullulans) was 1 µg/mL (≈ 3.71 µM) and the MIC (Ceratocystis ips) was 10 µg/mL (≈ 37.1 µM).

For N#CSCOc1nc(Cl)c(Cl)c(OCCl)c1Cl [IV, Thiocyanic acid, [(3,5,6-trichloro-4-(chloromethoxy)-2-pyridinyl)oxy]methylester], the MIC (Rhizopus nigricans) was 100 µg/mL (≈ 299 µM), the MIC (Aspergillus terreus) was 10 µg/mL (≈ 29.9 µM) and the MIC (Trichoderma sp. 42) was 10 µg/mL (≈ 29.9 µM). It also gave an MIC (Candida albicans) of 10 µg/mL (≈ 29.9 µM), an MIC (Candida pelliculosa) of 10 µg/mL (≈ 29.9 µM) and an MIC [1] of 1 µg/mL (≈ 2.99 µM). For the same molecule, the MIC (Pullularia pullulans) was 10 µg/mL (≈ 29.9 µM) and the MIC (Ceratocystis ips) was 10 µg/mL (≈ 29.9 µM).

N#CSCOc1nc(F)c(Cl)cc1Cl [V, Thiocyanic acid, [(3,5-dichloro-6-fluoro-2-pyridinyl)oxy]methyl ester] was tested, and the MIC (Rhizopus nigricans) was 10 µg/mL (≈ 39.5 µM), the MIC (Aspergillus terreus) was 1 µg/mL (≈ 3.95 µM) and the MIC (Trichoderma sp. 42) was 10 µg/mL (≈ 39.5 µM). For the same molecule, the MIC (Candida albicans) was 10 µg/mL (≈ 39.5 µM), the MIC (Candida pelliculosa) was 10 µg/mL (≈ 39.5 µM) and the MIC [1] was 1 µg/mL (≈ 3.95 µM). It also gave an MIC (Pullularia pullulans) of 10 µg/mL (≈ 39.5 µM) and an MIC (Ceratocystis ips) of 10 µg/mL (≈ 39.5 µM).

N#CSCOc1cc(C(Cl)(Cl)Cl)cc(Cl)n1 [VI, Thiocyanic acid [(6-chloro-4-(trichloromethyl)-2-pyridinyl)-oxy]methyl ester] showed an MIC (Rhizopus nigricans) of 100 µg/mL (≈ 314 µM), an MIC (Aspergillus terreus) of 1 µg/mL (≈ 3.14 µM) and an MIC (Trichoderma sp. 42) of 100 µg/mL (≈ 314 µM). The MIC (Candida albicans) was 100 µg/mL (≈ 314 µM), the MIC (Candida pelliculosa) was 100 µg/mL (≈ 314 µM) and the MIC [1] was 1 µg/mL (≈ 3.14 µM). For the same molecule, the MIC (Pullularia pullulans) was 10 µg/mL (≈ 31.4 µM) and the MIC (Ceratocystis ips) was 10 µg/mL (≈ 31.4 µM).

Source: patent US4062853A, “Chloro-pyridinyloxymethyl esters of thiocyanic acid” (The Dow Chemical Company, priority 1973, dated 1977)
